Test results published in PubChem BioAssay (NCI).
Where “and” joins values, the source holds several entries; their conditions need not be identical. Equal values may be shown once.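 These data come from cells grown in 96-well plates and exposed to compound for 48 hours at five concentrations. The concentration for 50% growth inhibition is given as GI50. The concentration for full growth arrest is given as TGI.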

Legend:
Experiment in all cases: growth of human tumour cells (NCI), 48 h
ACHN renal = system: ACHN renal
CCRF-CEM leukemia = system: CCRF-CEM leukemia
HCC-2998 colon = system: HCC-2998 colon
HCT-116 colon = system: HCT-116 colon
IGROV1 ovarian = system: IGROV1 ovarian
K-562 leukemia = system: K-562 leukemia
NCI-H460 lung = system: NCI-H460 lung
RPMI-8226 leukemia = system: RPMI-8226 leukemia
SF-539 CNS = system: SF-539 CNS
MDA-MB-231 breast = system: MDA-MB-231 breast

| SMILES | TGI (ACHN renal) | TGI (CCRF-CEM leukemia) | TGI (HCC-2998 colon) | TGI (HCT-116 colon) | TGI (IGROV1 ovarian) | TGI (K-562 leukemia) | TGI (NCI-H460 lung) | TGI (RPMI-8226 leukemia) | TGI (SF-539 CNS) | TGI (MDA-MB-231 breast) [µM] | GI50 (ACHN renal) | GI50 (CCRF-CEM leukemia) | GI50 (HCC-2998 colon) | GI50 (HCT-116 colon) | GI50 (IGROV1 ovarian) | GI50 (K-562 leukemia) | GI50 (NCI-H460 lung) | GI50 (RPMI-8226 leukemia) | GI50 (SF-539 CNS) | GI50 (MDA-MB-231 breast) [µM] |
| --- | --- | --- | --- | --- | --- | --- | --- | --- | --- | --- | --- | --- | --- | --- | --- | --- | --- | --- | --- | --- |
| O=C(Cc1ccccc1)C(c1ccccc1)S(=O)(=O)c1ccccc1 (stereo not drawn) | > 100 µM | > 100 µM | > 100 µM | > 100 µM | > 100 µM | > 100 µM | > 100 µM | > 100 µM | > 100 µM |  |  |  |  |  |  |  |  |  |  |  |
| O=c1[nH]c(=S)[nH]c(-c2ccccc2)c1Cc1c(O)ccc2ccccc12 | > 100 µM | 41 µM |  | 74.4 µM | > 100 µM | > 100 µM | > 100 µM | 67.6 µM | 82.1 µM | > 100 |  |  |  |  |  |  |  |  |  |  |
| COc1c(OC(C)C)cc2cc(O)c(C(=O)NC3Cc4ccc(c(Cl)n4)O[C@@H]4C=C5C#C/C(=C\C#CC6OC56C4OC4CC(C)(O)C(O)C(C)O4)C(OC4CC(O)C(N(C)C)C(C)O4)COC3=O)cc2c1OC (stereo partly drawn) | > 36.3 µM and 5.69 µg/mL | > 36.3 µM and 5.33 µg/mL | > 36.3 µM and 37.5 µg/mL | 15.7 µg/mL | > 36.3 µM and 37.5 µg/mL | > 36.3 µM and 37.5 µg/mL | > 36.3 µM and 7.13 µg/mL | 3.67 µg/mL | > 36.3 µM and 5.29 µg/mL |  | 9.33 µM and 0.303 µg/mL | 4.34 µM and 0.0317 µg/mL | 21 µg/mL | 0.584 µg/mL | > 36.3 µM and 37.5 µg/mL | > 36.3 µM and 0.823 µg/mL | 3.81 µM and 0.0528 µg/mL | 0.348 µg/mL | 14.4 µM and 0.372 µg/mL |  |
| C[P+]1(c2ccccc2)CCCCC1 | > 100 µM | > 100 µM | > 100 µM |  | > 100 µM | > 100 µM | > 100 µM | > 100 µM | > 100 µM |  |  |  |  |  |  |  |  |  |  |  |
| C=C1C=CC2(Br)OC3CC(C)(Cl)C(Br)CC13C2(C)C (stereo not drawn) | 56.2 µM | 47.5 µM | 42.7 µM | 28.5 µM | 92.7 µM | 36.8 µM | 46 µM | 53.1 µM | 38.9 µM |  |  |  |  |  |  |  |  |  |  |  |
| O=C1C(Sc2ccc3ccccc3c2)=C(Sc2ccc3ccccc3c2)C(=O)c2ccccc21 | 17.3 µM |  | 19.6 µM | 20.2 µM |  | 19 µM | > 100 µM |  | 22.8 µM | 18.3 |  |  |  |  |  |  |  |  |  |  |
| CC(=O)Nc1ccc(S(=O)(=O)NN(C)S(=O)(=O)c2ccc(C)cc2)cc1 | > 100 µM | > 100 µM | > 100 µM | > 100 µM | > 100 µM | > 100 µM | > 100 µM | > 100 µM | > 100 µM |  |  |  |  |  |  |  |  |  |  |  |
| C=CC(=O)N[C@@H](/C=C/C(=O)OCC)Cc1ccc(-c2cc(Cl)cc(Cl)c2)cc1 | > 100 µM |  | 57.6 µM | 34.2 µM | > 100 µM | > 100 µM | 32.8 µM |  | 39.1 µM | 48.8 | 16.1 µM |  | 19.9 µM | 5.29 µM | 12.7 µM | 15.7 µM | 11.2 µM |  | 16.6 µM | 12.8 |
| N#Cc1cc2c(cc1Cl)Sc1nnc(Nc3cccc4ccccc34)n1S2(=O)=O | 19.2 µM |  |  | 14.2 µM | 21.2 µM | > 100 µM | 33.8 µM | 7.77 µM | 5.2 µM | 6.96 | 6.34 µM |  |  | 3.98 µM | 7.38 µM | 4.08 µM | 13.8 µM | 2.66 µM | 2.4 µM | 2.49 |
| N#CC1C(N)=NNC12Nc1ccccc1S2 (stereo not drawn) | 53.3 µM |  |  | 35.9 µM | 20.6 µM | 34.7 µM | > 100 µM | > 100 µM |  | 16.6 | 20.1 µM |  |  | 11.5 µM | 3.22 µM | 14.1 µM | 36.6 µM | 26.3 µM |  | 3.59 |
| Cc1ccc(NC(=O)/C(C#N)=C/c2ccccc2)c(C)c1 | > 100 µM | > 100 µM | > 100 µM | > 100 µM | > 100 µM | > 100 µM | > 100 µM | > 100 µM | > 100 µM |  |  |  |  |  |  |  |  |  |  |  |
| Nc1nc(C(=O)O)c(N=Nc2ccccc2)c(=O)[nH]1 | > 100 µM | > 100 µM |  | > 100 µM | > 100 µM | > 100 µM | > 100 µM | > 100 µM | > 100 µM | > 100 |  |  |  |  |  |  |  |  |  |  |
| CC(=O)[CH-]C(C)=O.CC(=O)[CH-]C(C)=O.CC(=O)[CH-]C(C)=O.[Ga+3] | > 100 µM |  | > 100 µM | > 100 µM | > 100 µM |  | > 100 µM | > 100 µM | > 100 µM |  | > 100 µM |  | > 100 µM | > 100 µM | > 100 µM |  | > 100 µM | > 100 µM | > 100 µM |  |
| COC(=O)c1cc([N+](=O)[O-])cc([N+](=O)[O-])c1Cl | 3.21 µM |  | 28.3 µM | 2.63 µM |  | > 100 µM | 39 µM | 5.66 µM | 4.22 µM | 5.79 | 1.76 µM |  | 14.4 µM | 1.06 µM |  | 2.24 µM | 13.1 µM | 2.4 µM | 1.98 µM | 2.34 |
| CC(=O)CC(=O)CCC(=O)Nc1cccc(C(F)(F)F)c1 | > 100 µM | > 100 µM | > 100 µM | > 100 µM | > 100 µM | > 100 µM | > 100 µM | > 100 µM | > 100 µM |  |  |  |  |  |  |  |  |  |  |  |
| Cc1nnc(N/N=C(/C(=O)C(C#N)c2ccc(Cl)cc2)C(C#N)c2ccc(Cl)cc2)n1N (stereo not drawn) | 30.8 µM | > 100 µM | 34.2 µM |  |  | 45.4 µM | 39.3 µM | 45.6 µM |  |  |  |  |  |  |  |  |  |  |  |  |
| CCOC(=O)C(CCCNC(=O)OC(C)(C)C)N(Cc1ccc(OC)cc1OC)C(=O)CC(=O)CP(=O)(OCC)OCC (stereo not drawn) | > 100 µM | > 100 µM | > 100 µM | > 100 µM | > 100 µM | > 100 µM | > 100 µM | > 100 µM | > 100 µM |  |  |  |  |  |  |  |  |  |  |  |
| O=C(CO)C1CC2C=CC1C2 (stereo not drawn) | > 100 µM | > 100 µM |  | > 100 µM | > 100 µM | > 100 µM | > 100 µM | > 100 µM | > 100 µM |  |  |  |  |  |  |  |  |  |  |  |
| N#CNC1=NC(N)C(c2nc3ccccc3[nH]2)=C(CCCC(=O)Nc2cccc([N+](=O)[O-])c2)N1 (stereo not drawn) | > 100 µM | > 100 µM | > 100 µM |  | > 100 µM | > 100 µM | > 100 µM | > 100 µM | > 100 µM |  |  |  |  |  |  |  |  |  |  |  |
